Assay results published in ChEMBL document CHEMBL1201862, “PubChem BioAssay data set” (2004).
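1) Cells in 96-well plates. 2) Compound, 48 h, 5 concentrations. 3) Linear interpolation between surrounding doses. 4) Unreached endpoint = highest concentration. Here, GI50 denotes the concentration required for 50% inhibition of growth.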 Active and inactive are the calls of the source. Cut-off read from the data, not from the text of the source: active = GI50 up to about 1.1 µM and inactive = higher.

Legend:
Experiment in all cases: NCI anticancer screen, dose series, 48 h
SR = system: SR
TK-10 = system: TK-10
RXF 393 = system: RXF 393
CAKI-1 = system: CAKI-1
K562 = system: K562
HOP-62 = system: HOP-62
KM-20L2 = system: KM-20L2
CCRF-CEM = system: CCRF-CEM
Malme-3M = system: Malme-3M
786-0 = system: 786-0
NCI-H522 = system: NCI-H522
RPMI-8226 = system: RPMI-8226
HCT-15 = system: HCT-15
HOP-92 = system: HOP-92
SK-MEL-28 = system: SK-MEL-28
OVCAR-4 = system: OVCAR-4
OVCAR-5 = system: OVCAR-5
BT-549 = system: BT-549
Hs-578T = system: Hs-578T
T47D = system: T47D

## Cc1ccccc1NC(=O)C(=O)C(c1cnc2ccc([N+](=O)[O-])cc2n1)[N+](=O)[O-] (stereo not drawn)
SR
  GI50: > 100 µM (inactive)
TK-10
  GI50: > 100 µM (inactive)
RXF 393
  GI50: > 100 µM (inactive)
CAKI-1
  GI50: > 100 µM (inactive)
K562
  GI50: 39.1 µM (inactive)
HOP-62
  GI50: > 100 µM (inactive)
KM-20L2
  GI50: > 100 µM (inactive)
CCRF-CEM
  GI50: 25.5 µM (inactive)
Malme-3M
  GI50: > 100 µM (inactive)
786-0
  GI50: > 100 µM (inactive)
NCI-H522
  GI50: 27.4 µM (inactive)
RPMI-8226
  GI50: 31.7 µM (inactive)
HCT-15
  GI50: > 100 µM
HOP-92
  GI50: > 100 µM (inactive)
SK-MEL-28
  GI50: > 100 µM (inactive)
OVCAR-4
  GI50: > 100 µM (inactive)
OVCAR-5
  GI50: > 100 µM (inactive)

## CS(=O)(=O)CSCSSCS(C)(=O)=O
SR
  GI50: 16.5 µM (inactive)
TK-10
  GI50: > 90.6 µM (inactive)
RXF 393
  GI50: 17.1 µM (inactive)
CAKI-1
  GI50: 25.4 µM (inactive)
K562
  GI50: 23.8 µM (inactive)
HOP-62
  GI50: 51.8 µM (inactive)
KM-20L2
  GI50: 55.8 µM (inactive)
CCRF-CEM
  GI50: 22.2 µM (inactive)
Malme-3M
  GI50: 38.7 µM (inactive)
786-0
  GI50: 20.1 µM (inactive)
NCI-H522
  GI50: 14.9 µM (inactive)
RPMI-8226
  GI50: 20.4 µM (inactive)
HCT-15
  GI50: 28 µM
HOP-92
  GI50: 27.7 µM (inactive)
SK-MEL-28
  GI50: 24.6 µM (inactive)
OVCAR-4
  GI50: 33 µM (inactive)
OVCAR-5
  GI50: 43.2 µM (inactive)

## O=c1c2ccccc2n2nnc3ccc(NCCNCCO)c1c32
BT-549
  GI50: 2.02 µM (inactive)
SR
  GI50: 0.649 µM (active)
TK-10
  GI50: 2.79 µM (inactive)
Hs-578T
  GI50: 2.03 µM (inactive)
RXF 393
  GI50: 1.87 µM (inactive)
T47D
  GI50: 5.82 µM (inactive)
CAKI-1
  GI50: 1.84 µM (inactive)
K562
  GI50: 1.61 µM (inactive)
HOP-62
  GI50: 2.08 µM (inactive)
KM-20L2
  GI50: 1.29 µM (inactive)
CCRF-CEM
  GI50: 0.948 µM (active)
Malme-3M
  GI50: 1.87 µM (inactive)
786-0
  GI50: 1.02 µM (active)
NCI-H522
  GI50: 1.82 µM (inactive)
RPMI-8226
  GI50: 1.82 µM (inactive)
HCT-15
  GI50: 2.03 µM
HOP-92
  GI50: 1.88 µM (inactive)
SK-MEL-28
  GI50: 2.87 µM (inactive)
OVCAR-4
  GI50: 1.71 µM (inactive)
OVCAR-5
  GI50: 2.34 µM (inactive)

## O=C(c1ccc2c3c(ccc(C(=O)C(F)(F)F)c13)CC2)C(F)(F)F
SR
  GI50: 60.1 µM (inactive)
TK-10
  GI50: 53 µM (inactive)
RXF 393
  GI50: 55.6 µM (inactive)
CAKI-1
  GI50: > 100 µM (inactive)
HOP-62
  GI50: 72.1 µM (inactive)
KM-20L2
  GI50: 35.2 µM (inactive)
Malme-3M
  GI50: 52.4 µM (inactive)
786-0
  GI50: 57.5 µM (inactive)
NCI-H522
  GI50: 29.8 µM (inactive)
HCT-15
  GI50: 58.7 µM
HOP-92
  GI50: 27 µM (inactive)
SK-MEL-28
  GI50: 62.2 µM (inactive)
OVCAR-4
  GI50: 35.1 µM (inactive)
OVCAR-5
  GI50: > 100 µM (inactive)

## CCC1=C(CC2NCCc3ccccc32)CC2c3cc(OC)c(OC)cc3CCN2C1 (stereo not drawn)
BT-549
  GI50: 2.14 µM (inactive)
SR
  GI50: 0.342 µM (active)
TK-10
  GI50: 0.728 µM (active)
Hs-578T
  GI50: 0.44 µM (active)
RXF 393
  GI50: 0.635 µM (active)
T47D
  GI50: 0.514 µM (active)
CAKI-1
  GI50: 0.473 µM (active)
K562
  GI50: 0.286 µM (active)
HOP-62
  GI50: 0.627 µM (active)
KM-20L2
  GI50: 0.891 µM (active)
CCRF-CEM
  GI50: 0.357 µM (active)
Malme-3M
  GI50: 0.603 µM (active)
786-0
  GI50: 0.338 µM (active)
NCI-H522
  GI50: 0.316 µM (active)
RPMI-8226
  GI50: 0.392 µM (active)
HCT-15
  GI50: 0.552 µM
HOP-92
  GI50: 0.675 µM (active)
SK-MEL-28
  GI50: 1.16 µM (inactive)
OVCAR-4
  GI50: 0.237 µM (active)
OVCAR-5
  GI50: 0.579 µM (active)
